Test results from patent US10022355B2, “Diaryl and arylheteroaryl urea derivatives as modulators of the 5-HT2A serotonin receptor useful for the prophylaxis and treatment of REM sleep behavior disorder” (Axovant Sciences GmbH, priority 2015, dated 2018).
Entries after “also recorded” stand apart in the source; their conditions may differ.

Experiments:
[1] = Completed Phase 1 and Phase 2 clinical studies of nelotanserin (originally for primary insomnia); assay type: in vivo, human
Experimental: Nelotanserin: Nelotanserin (RVT-102), previously known as APD-125, is a potent and selective 5HT2a receptor inverse agonist, and is currently being developed as an oral treatment for REM sleep behavior disorder in patients with DLB. Originally being developed for primary insomnia, seven clinical studies have been completed to date that included five Phase 1 and two Phase 2 studies, and 792 individuals have been exposed to nelotanserin over the dose range of 20 to 160 mg and up to 14 days.

[2] = elderly patients; cited from earlier work

| Compound | sleep maintenance and consolidation ([1]; Phase 1 and Phase 2 studies) | slow wave sleep ([1]; Phase 1 and Phase 2 studies) | safety and tolerability profile ([1]; five Phase 1 and two Phase 2 studies, 792 individuals exposed, dose range 20 to 160 mg, up to 14 days) | number of sleep phase transitions ([1]; previous clinical studies) | side effects [2] |
| --- | --- | --- | --- | --- | --- |
| COc1ccc(NC(=O)Nc2ccc(F)cc2F)cc1-c1c(Br)cnn1C [nelotanserin] | improves sleep maintenance and consolidation | increases slow wave sleep | favorable safety and tolerability profile; also recorded: acceptable safety and tolerability profile | reduces the number of sleep phase transitions | – |
| O=C1CN=C(c2ccccc2Cl)c2cc([N+](=O)[O-])ccc2N1 [Clonazepam, clonazepam] | – | – | – | – | confusion, daytime sedation, and increased risk of falls |
